Key:
Test in all cases: post-emergent herbicidal activity, greenhouse
Assay type in all cases: in vivo
Settings in all cases: Table I
Johnsongrass = test system: Johnsongrass
From the text: (§1) A good grade of top soil is placed in aluminum pans having holes in the bottom and compacted to a depth of 0.95 to 1.27 cm. from the top of the pan. A predetermined number of seeds of each of several dicotyledonous and monocotyledonous annual plant species and/or vegetative propagules for the perennial plant species were placed on the soil and pressed into the soil surface. The seeds and/or vegetative propagules are covered with soil and leveled. The pans are then placed on a sand bench in the greenhouse and watered from below as needed. After the plants reach the desired age (two to three weeks), each pan except for the control pans is removed individually to a spraying chamber and sprayed by means of an atomizer operating at a positive air pressure of approximately 1.46 kg/cm^2 absolute. The atomizer contains 6 ml. of a solution or suspension of the chemical. In that 6 ml., is an amount of a cyclohexanone emulsifying agent mixture to give a spray solution or suspension which contains about 0.4% by weight of the emulsifier. The spray solution or suspension contains a sufficient amount of the candidate chemical in order to give application rates corresponding to those set forth in the tables. The spray solution is prepared by taking an aliquot of a 1.0% by weight stock solution or suspension of the candidate chemical in an organic solvent such as acetone or tetrahydrofuran or in water. The emulsifying agent employed is a mixture comprising 35 weight percent butylamine dodecylbenzene sulfonate and 65 weight percent of a tall oil ethylene oxide condensate having about 11 moles of ethylene oxide per mole of tall oil. The pans are returned to the greenhouse and watered as before and the injury to the plants as compared to the control is observed at approximately two and four weeks as indicated in the tables under WAT and the results recorded. In some instances, the two-week observations are omitted.
(§2) The post-emergent herbicidal activity index used in Tables I and II is as follows: […]

Morningglory = test system: Morningglory
From the text: as §1, §2

Velvetleaf = test system: Velvetleaf
From the text: as §1, §2

Barnyardgrass = test system: Barnyardgrass
From the text: as §1, §2

Downy Brome = test system: Downy Brome
From the text: as §1, §2

Canada Thistle = test system: Canada Thistle
From the text: as §1, §2

Yellow Nutsedge = test system: Yellow Nutsedge
From the text: as §1, §2

Quackgrass = test system: Quackgrass
From the text: as §1, §2

Lambsquarters = test system: Lambsquarters
From the text: as §1, §2

Cocklebur = test system: Cocklebur
From the text: as §1, §2

Smartweed = test system: Smartweed
From the text: as §1, §2

SMILES | post-emergent herbicidal activity index (Johnsongrass; 4 WAT, 11.2 kg/h) | post-emergent herbicidal activity index (Morningglory; 4 WAT, 11.2 kg/h) | post-emergent herbicidal activity index (Velvetleaf; 4 WAT, 11.2 kg/h) | post-emergent herbicidal activity index (Barnyardgrass; 4 WAT, 11.2 kg/h) | post-emergent herbicidal activity index (Downy Brome; 4 WAT, 11.2 kg/h) | post-emergent herbicidal activity index (Canada Thistle; 4 WAT, 11.2 kg/h) | post-emergent herbicidal activity index (Yellow Nutsedge; 4 WAT, 11.2 kg/h) | post-emergent herbicidal activity index (Quackgrass; 4 WAT, 11.2 kg/h) | post-emergent herbicidal activity index (Lambsquarters; 4 WAT, 11.2 kg/h) | post-emergent herbicidal activity index (Cocklebur; 4 WAT, 11.2 kg/h) | post-emergent herbicidal activity index (Smartweed; 4 WAT, 11.2 kg/h) | further results
CCOC(=O)CNCP(=O)(OCCSC(=O)OCC)OCCSC(=O)OCC [Example 19, glycine, N-[[bis[2-[(ethoxycarbonyl)thio]ethoxy]-phosphinyl]methyl]-, ethyl ester] | 2 (50-74% control) | 2 (50-74% control) | 0 (0-24% control) | 2 (50-74% control) | 0 (0-24% control) | 2 (50-74% control) | 1 (25-49% control) | 1 (25-49% control) | 0 (0-24% control) | 2 (50-74% control) | 1 (25-49% control) | post-emergent herbicidal activity index (Johnsongrass; 4 WAT, 5.6 kg/h): 1 (25-49% control); post-emergent herbicidal activity index (Morningglory; 4 WAT, 5.6 kg/h): 2 (50-74% control); post-emergent herbicidal activity index (Velvetleaf; 4 WAT, 5.6 kg/h): 0 (0-24% control); post-emergent herbicidal activity index (Barnyardgrass; 4 WAT, 5.6 kg/h): 1 (25-49% control); post-emergent herbicidal activity index (Downy Brome; 4 WAT, 5.6 kg/h): 0 (0-24% control); post-emergent herbicidal activity index (Canada Thistle; 4 WAT, 5.6 kg/h): 1 (25-49% control); post-emergent herbicidal activity index (Yellow Nutsedge; 4 WAT, 5.6 kg/h): 0 (0-24% control); post-emergent herbicidal activity index (Quackgrass; 4 WAT, 5.6 kg/h): 0 (0-24% control); post-emergent herbicidal activity index (Lambsquarters; 4 WAT, 5.6 kg/h): 0 (0-24% control); post-emergent herbicidal activity index (Cocklebur; 4 WAT, 5.6 kg/h): 0 (0-24% control); post-emergent herbicidal activity index (Smartweed; 4 WAT, 5.6 kg/h): 0 (0-24% control)
CCOC(=O)CNCP(=O)(OC1CCCSC1)OC1CCCSC1 (stereo not drawn) [Example 20, glycine, N-[[bis[(tetrahydro-2H-thiopyran-3-yl)-oxy]-phosphinyl]methyl]-, ethyl ester] | 0 (0-24% control) | 1 (25-49% control) | 1 (25-49% control) | 1 (25-49% control) | 0 (0-24% control) | 0 (0-24% control) | 0 (0-24% control) | 1 (25-49% control) | 1 (25-49% control) | 0 (0-24% control) | 0 (0-24% control) | post-emergent herbicidal activity index (Johnsongrass; 2 WAT, 5.6 kg/h): 0 (0-24% control); post-emergent herbicidal activity index (Morningglory; 2 WAT, 5.6 kg/h): 0 (0-24% control); post-emergent herbicidal activity index (Velvetleaf; 2 WAT, 5.6 kg/h): 0 (0-24% control); post-emergent herbicidal activity index (Barnyardgrass; 2 WAT, 5.6 kg/h): 0 (0-24% control); post-emergent herbicidal activity index (Downy Brome; 2 WAT, 5.6 kg/h): 0 (0-24% control); post-emergent herbicidal activity index (Canada Thistle; 2 WAT, 5.6 kg/h): 0 (0-24% control); post-emergent herbicidal activity index (Yellow Nutsedge; 2 WAT, 5.6 kg/h): 0 (0-24% control); post-emergent herbicidal activity index (Quackgrass; 2 WAT, 5.6 kg/h): 0 (0-24% control); post-emergent herbicidal activity index (Lambsquarters; 2 WAT, 5.6 kg/h): 0 (0-24% control); post-emergent herbicidal activity index (Cocklebur; 2 WAT, 5.6 kg/h): 0 (0-24% control); post-emergent herbicidal activity index (Smartweed; 2 WAT, 5.6 kg/h): 0 (0-24% control)
CCOC(=O)CNCP(=O)(OCc1ccco1)OCc1ccco1 [Example 21, glycine, N-[[bis(2-furanylmethoxy)phosphinyl]methyl]-, ethyl ester] | 0 (0-24% control) | 1 (25-49% control) | 0 (0-24% control) | 0 (0-24% control) | 0 (0-24% control) | 0 (0-24% control) | 0 (0-24% control) | 0 (0-24% control) | 0 (0-24% control) | 0 (0-24% control) | 0 (0-24% control) | post-emergent herbicidal activity index (Johnsongrass; 4 WAT, 56.0 kg/h): 0 (0-24% control); post-emergent herbicidal activity index (Morningglory; 4 WAT, 56.0 kg/h): 2 (50-74% control); post-emergent herbicidal activity index (Velvetleaf; 4 WAT, 56.0 kg/h): 1 (25-49% control); post-emergent herbicidal activity index (Barnyardgrass; 4 WAT, 56.0 kg/h): 2 (50-74% control); post-emergent herbicidal activity index (Downy Brome; 4 WAT, 56.0 kg/h): 1 (25-49% control); post-emergent herbicidal activity index (Canada Thistle; 4 WAT, 56.0 kg/h): 3 (75-99% control); post-emergent herbicidal activity index (Yellow Nutsedge; 4 WAT, 56.0 kg/h): 1 (25-49% control); post-emergent herbicidal activity index (Quackgrass; 4 WAT, 56.0 kg/h): 0 (0-24% control); post-emergent herbicidal activity index (Lambsquarters; 4 WAT, 56.0 kg/h): 1 (25-49% control); post-emergent herbicidal activity index (Cocklebur; 4 WAT, 56.0 kg/h): 2 (50-74% control); post-emergent herbicidal activity index (Smartweed; 4 WAT, 56.0 kg/h): 1 (25-49% control)

From patent US4442044A, “Process for preparing monoesters and diesters of N-alkyl substituted amino methyl phosphonic acid” (priority 1983, dated 1984)
